Measured values from patent publication US20260305610A1, “TRIAZOLE COMPOUND, AND PREPARATION METHOD THEREFOR, HERBICIDAL COMPOSITION AND USE THEREOF” (QINGDAO KINGAGROOT CHEMICAL COMPOUND CO., LTD., priority 2023, published 2026).

Experiments:
Assay type in all cases: in vivo
Cyperus iria = assay: Pre-emergence sealing experiment for water-seeding; parameters: key: 9: completely dead; 8: growth control rate is greater than or equal to 90% and less than 100%; 7: growth control rate is greater than or equal to 80% and less than 90%; 6: growth control rate is greater than or equal to 70% and less than 80%; growth control rate is greater than or equal to 50% and less than 70%; 4: growth control rate is greater than or equal to 30% and less than 50%; growth control rate is greater than or equal to 20% and less than 30%; growth control rate is greater than or equal to 10% and less than 20%; growth control rate is less than 10%; 0: no effect; conditions: 15 days, sulfonylurea-resistant strain
From the text: (§1) The activity level criteria for plant damage (i.e., growth control rate) are as follows: • Level 9: completely dead; • Level 8: growth control rate is greater than or equal to 90% and less than 100%; • Level 7: growth control rate is greater than or equal to 80% and less than 90%; • Level 6: growth control rate is greater than or equal to 70% and less than 80%; • Level 5: growth control rate is greater than or equal to 50% and less than 70%; • Level 4: growth control rate is greater than or equal to 30% and less than 50%; • Level 3: growth control rate is greater than or equal to 20% and less than 30%; • Level 2: growth control rate is greater than or equal to 10% and less than 20%; • Level 1: growth control rate is less than 10%; • Level 0: no effect.
(§2) The seeds of Leptochloa chinensis, Digitaria sanguinalis, Monochoria vaginalis (sulfonylurea-resistant strain, collected from Hunan, China), Cyperus iria (sulfonylurea-resistant strain, collected from Jiangsu, China), Huaidao (rice cultivar), etc. were broadcasted on the surface of nutrition bowls filled with soil and fully covered by soil. The prepared nutrition bowls were then placed in a cultivation box, with water filled to a suitable height to keep the soil in the nutrition bowls moist. The test compounds of the present invention were individually dissolved with mixed solutions of acetone and Tween-80, then diluted into solution of a certain concentration using a certain amount of water and sprayed using a spray tower. The plants were placed on a greenhouse seedbed and cultured for 15 days, and the experimental results were then collected. The compounds were applied at 120, 60, 30 and 15 g a.i./ha in triplicate and the results were averaged. The effects were evaluated according to the above activity level criteria.

Monochoria vaginalis = assay: Pre-emergence sealing experiment for water-seeding; parameters: key: 9: completely dead; 8: growth control rate is greater than or equal to 90% and less than 100%; 7: growth control rate is greater than or equal to 80% and less than 90%; 6: growth control rate is greater than or equal to 70% and less than 80%; growth control rate is greater than or equal to 50% and less than 70%; 4: growth control rate is greater than or equal to 30% and less than 50%; growth control rate is greater than or equal to 20% and less than 30%; growth control rate is greater than or equal to 10% and less than 20%; growth control rate is less than 10%; 0: no effect; conditions: 15 days, sulfonylurea-resistant strain
From the text: as §1, §2

Digitaria sanguinalis = assay: Pre-emergence sealing experiment for water-seeding; parameters: key: 9: completely dead; 8: growth control rate is greater than or equal to 90% and less than 100%; 7: growth control rate is greater than or equal to 80% and less than 90%; 6: growth control rate is greater than or equal to 70% and less than 80%; growth control rate is greater than or equal to 50% and less than 70%; 4: growth control rate is greater than or equal to 30% and less than 50%; growth control rate is greater than or equal to 20% and less than 30%; growth control rate is greater than or equal to 10% and less than 20%; growth control rate is less than 10%; 0: no effect; conditions: 15 days
From the text: as §1, §2

Leptochloa chinensis = assay: Pre-emergence sealing experiment for water-seeding; parameters: key: 9: completely dead; 8: growth control rate is greater than or equal to 90% and less than 100%; 7: growth control rate is greater than or equal to 80% and less than 90%; 6: growth control rate is greater than or equal to 70% and less than 80%; growth control rate is greater than or equal to 50% and less than 70%; 4: growth control rate is greater than or equal to 30% and less than 50%; growth control rate is greater than or equal to 20% and less than 30%; growth control rate is greater than or equal to 10% and less than 20%; growth control rate is less than 10%; 0: no effect; conditions: 15 days
From the text: as §1, §2

major crops = assay: Pre-emergence test experiment (crops); parameters: key: 9: completely dead; 8: growth control rate is greater than or equal to 90% and less than 100%; 7: growth control rate is greater than or equal to 80% and less than 90%; 6: growth control rate is greater than or equal to 70% and less than 80%; growth control rate is greater than or equal to 50% and less than 70%; 4: growth control rate is greater than or equal to 30% and less than 50%; growth control rate is greater than or equal to 20% and less than 30%; growth control rate is greater than or equal to 10% and less than 20%; growth control rate is less than 10%; 0: no effect
[1] = tested on: monocotyledonous and dicotyledonous weeds; assay: Pre-emergence test experiment (weeds); parameters: key: 9: completely dead; 8: growth control rate is greater than or equal to 90% and less than 100%; 7: growth control rate is greater than or equal to 80% and less than 90%; 6: growth control rate is greater than or equal to 70% and less than 80%; growth control rate is greater than or equal to 50% and less than 70%; 4: growth control rate is greater than or equal to 30% and less than 50%; growth control rate is greater than or equal to 20% and less than 30%; growth control rate is greater than or equal to 10% and less than 20%; growth control rate is less than 10%; 0: no effect
weeds = assay: Activity assay of compositions: soil sealing treatment (S), fresh weight inhibition and combined effect (Gowing method); conditions: Silene conoidea, 21 d
Procedure, shortened: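 Pre-emergence soil treatment: pre-germinated seeds sown 72 h earlier, sprayed at 450 kg/ha spray volume, 0.3 MPa; compounds in acetone diluted with 0.1% Tween-80. Greenhouse 20-30 °C; fresh weight of surviving weeds measured 21 days after treatment, 4 replicates. Expected mixture inhibition by Gowing formula, E0=X+Y−X*Y/100.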

[2] = tested on: Echinochloa crusgalli, Schoenoplectiella juncoides and Bidens tripartita; assay: Resistance of collected weed seeds to pyrazosulfuron-ethyl; conditions: conventional doses; seeds collected from Heilongjiang, China

COCc1ccc(-n2cnc(C(F)(F)F)n2)nc1Oc1cccc(C(F)(F)F)c1 [Compound 23]
activity level (growth control rate, fresh weight), Cyperus iria (Cyperus iria; 15 g a.i./ha): 9
activity level (growth control rate, fresh weight), Monochoria vaginalis (Monochoria vaginalis; 15 g a.i./ha): 9
activity level (growth control rate, fresh weight), Digitaria sanguinalis (Digitaria sanguinalis; 15 g a.i./ha): 9
activity level (growth control rate, fresh weight), Leptochloa chinensis (Leptochloa chinensis; 15 g a.i./ha): 9
Pre-emergence plant damage level (growth control rate) on Corn (major crops; 30 g a.i./ha): 0
Pre-emergence plant damage level (growth control rate) on Cotton (major crops; 30 g a.i./ha): 0
Pre-emergence plant damage level (growth control rate) on Soybean (major crops; 30 g a.i./ha): 0
Pre-emergence activity level (growth control rate) on Amaranthus retroflexus ([1]; 30 g a.i./ha): 9
Pre-emergence activity level (growth control rate) on Descurainia sophia ([1]; 30 g a.i./ha): 9
Pre-emergence activity level (growth control rate) on Digitaria sanguinalis ([1]; 30 g a.i./ha): 9
Pre-emergence activity level (growth control rate) on Setaria viridis ([1]; 30 g a.i./ha): 8 (growth control rate is greater than or equal to 90% and less than 100%)
Pre-emergence activity level (growth control rate) on Solanum nigrum ([1]; 30 g a.i./ha): 9
Pre-emergence activity level (growth control rate) on Veronica ([1]; 30 g a.i./ha): 9

COC(=O)c1ccccc1CS(=O)(=O)NC(=O)Nc1nc(OC)cc(OC)n1 [Bensulfuron-methyl, bensulfuron-methyl, reference compound]
activity level (growth control rate, fresh weight), Cyperus iria (Cyperus iria; 30 g a.i./ha): 5 (growth control rate is greater than or equal to 50% and less than 70%)
activity level (growth control rate, fresh weight), Monochoria vaginalis (Monochoria vaginalis; 30 g a.i./ha): 2 (growth control rate is greater than or equal to 10% and less than 20%)
activity level (growth control rate, fresh weight), Digitaria sanguinalis (Digitaria sanguinalis; 30 g a.i./ha): 4 (growth control rate is greater than or equal to 30% and less than 50%)
activity level (growth control rate, fresh weight), Leptochloa chinensis (Leptochloa chinensis; 30 g a.i./ha): 3 (growth control rate is greater than or equal to 20% and less than 30%)
Control effect of B applied alone in a corresponding dose (%) (weeds; B 15 g a.i./ha): 43.7%
Control effect of B applied alone in a corresponding dose (%) (weeds; B 30 g a.i./ha): 60.5%

CCc1ccc(-n2cnc(C(F)(F)F)n2)nc1Oc1cccc(C(F)(F)F)c1 [Compound 16]
activity level (growth control rate, fresh weight), Cyperus iria (Cyperus iria; 15 g a.i./ha): 9
activity level (growth control rate, fresh weight), Monochoria vaginalis (Monochoria vaginalis; 15 g a.i./ha): 9
activity level (growth control rate, fresh weight), Digitaria sanguinalis (Digitaria sanguinalis; 15 g a.i./ha): 9
activity level (growth control rate, fresh weight), Leptochloa chinensis (Leptochloa chinensis; 15 g a.i./ha): 9
Pre-emergence plant damage level (growth control rate) on Corn (major crops; 15 g a.i./ha): 0
Pre-emergence plant damage level (growth control rate) on Cotton (major crops; 15 g a.i./ha): 0
Pre-emergence plant damage level (growth control rate) on Soybean (major crops; 15 g a.i./ha): 0
Pre-emergence activity level (growth control rate) on Amaranthus retroflexus ([1]; 15 g a.i./ha): 9
Pre-emergence activity level (growth control rate) on Descurainia sophia ([1]; 15 g a.i./ha): 9
Pre-emergence activity level (growth control rate) on Digitaria sanguinalis ([1]; 15 g a.i./ha): 9
Pre-emergence activity level (growth control rate) on Setaria viridis ([1]; 15 g a.i./ha): 9
Pre-emergence activity level (growth control rate) on Solanum nigrum ([1]; 15 g a.i./ha): 9
Pre-emergence activity level (growth control rate) on Veronica ([1]; 15 g a.i./ha): 9

CCOC(=O)c1cnn(C)c1S(=O)(=O)NC(=O)Nc1nc(OC)cc(OC)n1 [pyrazosulfuron-ethyl, reference compound]
resistance of collected weed seeds [2]: resistant to conventional doses
Control effect of B applied alone in a corresponding dose (%) (weeds; B 15 g a.i./ha): 50.4%
Control effect of B applied alone in a corresponding dose (%) (weeds; B 30 g a.i./ha): 65.6%
